Reference: patent publication US20260152533A1, “COMBINATION INHIBITORS FOR TREATING FIBROSIS” (Memorial Sloan-Kettering Cancer Center, priority 2021, published 2026)

System: mammary fibroblasts (MFBs)
Test: Western blot of MFBs
Type: cell-based, mouse
Conditions: TGFβ
Description: NIH-3T3 cells were obtained from ATCC (CRL-1658); 293 T cells were obtained from ATCC (CRL-3216). PSCs were isolated from C57BL/6 mice by differential centrifugation as previously described^49 and their mesenchymal origin was validated by analyzing the expression of various mesenchymal and epithelial markers. MFBs were isolated from FVB/N mice by differential centrifugation as previously described^50. DB7 mouse breast cancer cells were obtained from Alexander Borowsky (University of California Davis Comprehensive Cancer Center, Sacramento, CA, USA) through an MTA to Ohio State University (OSU). KPC (Kras^LSL-G12D; Trp53^LSL-R172H; Pdx1-Cre) mouse PDAC cells were a gift from Scott Lowe (Memorial Sloan Kettering Cancer Center. (MSKCC)). […]
Lysates were generated by incubating cells or ground tumors in RIPA buffer (Millipore); […] of cleared lysate were analyzed by SDS-polyacrylamide gel electrophoresis (SDS-PAGE) as previously described^11. […] Quantification of band intensities of collagen I relative to […] or vinculin in tumor allograft experiments was performed with Image Lab software v6.0 (Bio-Rad).

TGFβ: transforming growth-factor beta; TGFβ-1 purchased from Peprotech
collagen I production (20% Gln, 48 hours): unable to proliferate and produce collagen I | GCN2 phosphorylation (low Gln (20%), 48 hours (FIG. 8K)): showed GCN2 phosphorylation
